Assay results taken from ChEMBL document CHEMBL3758170, “From indole to pyrrole, furan, thiophene and pyridine: Search for novel small molecule inhibitors of bacterial transcription initiation complex formation” (Bioorg Med Chem, 2016).
Activity calls are given as the source filed them. The rule behind the calls is not given here.

Assays:
Bacillus subtilis [1] = assay: Antibacterial activity against Bacillus subtilis 168 assessed as growth inhibition at 200 uM measured every 10 mins for 16 hrs by FLUOstar Optima plate reader analysis relative to control; assay type: functional; details: for inhibition of growth at 200 µM: read-out: GI
Escherichia coli [2] = assay: Antibacterial activity against Escherichia coli DH5[alpha] assessed as growth inhibition at 200 uM measured every 10 mins for 16 hrs by FLUOstar Optima plate reader analysis relative to control; assay type: functional; details: for inhibition of growth at 200 µM: read-out: GI
BL21-DE3 = assay: Inhibition of Bacillus subtilis C-terminal GST-tagged RNAP beta'-CH expressed in Escherichia coli BL21 (DE3) cells binding interaction with Escherichia coli sigma-70/Bacillus subtilis full length SigmaA2.2 expressed in Escherichia coli C41 (DE3) cells using TMB as substrate at 15 uM preincubated for 1 hr followed by substrate addition by ELISA relative to control
[3] = Solubility of compound in Luria-Bertani medium at 200 uM; assay type: physicochemical
Escherichia coli [4] = assay: Antibacterial activity against Escherichia coli DH5[alpha] assessed as inhibition of exponential phase of bacterial growth at 200 uM measured every 10 mins for 16 hrs by FLUOstar Optima plate reader analysis relative to control; assay type: functional; details: read-out: GI
Bacillus subtilis [5] = assay: Antibacterial activity against Bacillus subtilis 168 assessed as inhibition of exponential phase of bacterial growth at 200 uM measured every 10 mins for 16 hrs by FLUOstar Optima plate reader analysis relative to control; assay type: functional; details: read-out: GI

Row | SMILES | growth inhibition (GI) (Bacillus subtilis [1]) | inhibition of growth at 200 µM (Escherichia coli [2]) [%] | inhibition (BL21-DE3) | solubility [3] | growth inhibition (GI) (Escherichia coli [2]) | inhibition of growth at 200 µM (Bacillus subtilis [1]) [%] | inhibition of growth at 200 µM (Escherichia coli [4]) [%] | inhibition of growth at 200 µM (Bacillus subtilis [5]) [%]
1 | O=C(N/N=C/c1cc(Br)cs1)c1ccco1 | inactive | 7 | inactive | soluble |  |  |  | 
2 | COc1cc(OC)c2c(-c3ccc(Br)cc3)c[nH]c2c1C(=O)N/N=C/c1ccco1 | inactive | 16 | 33% | soluble |  |  |  | 
3 | O=C(N/N=C/c1ccco1)c1ccc[nH]1 | inactive | 3 | 8% | soluble |  |  |  | 
4 | COc1cc(OC)c2c(-c3ccc(Cl)cc3)c[nH]c2c1C(=O)NNC(=O)c1cccs1 | inactive |  | inactive | soluble | inactive |  |  | 
5 | COc1cnc(Cl)cc1C(=O)NNC(=O)c1c(OC)cc(OC)c2c(-c3ccc(Br)cc3)c[nH]c12 |  | 24 | 17% | soluble |  | 13 |  | 
6 | O=C(N/N=C/c1cccs1)c1ccco1 | inactive | 23 | 29% |  |  |  |  | 
7 | O=C(N/N=C/c1cccs1)c1ccncc1Br |  | 18 | 8% | soluble |  | 11 |  | 
8 | O=C(N/N=C/c1cccs1)c1ccc[nH]1 | inactive |  | 20% | soluble |  |  | 26 | 
9 | COc1cc(OC)c2c(C)c(C(=O)NNC(=O)c3c(OC)cc(OC)c4c(-c5ccc(Cl)cc5)c[nH]c34)[nH]c2c1 |  | 45 | 72% |  |  |  |  | 
10 | O=C(N/N=C/c1ccc[nH]1)c1ccc[nH]1 |  | 21 | 41% | soluble |  | 30 |  | 
11 | O=C(N/N=C/c1ccc[nH]1)c1ccco1 | inactive |  | 21% | soluble | inactive |  |  | 
12 | COc1cc(OC)c2c(-c3ccc(Cl)cc3)c[nH]c2c1C(=O)NNC(=O)c1c(OC)cc(OC)c2c(-c3ccc(Cl)cc3)c[nH]c12 |  |  | 63% |  |  | 30 |  | 
13 | COc1cc(OC)c2c(-c3ccc(Cl)cc3)c[nH]c2c1C(=O)NNC(=O)c1ccnc(Cl)c1 |  | 10 | 14% | soluble |  | 17 |  | 
14 | O=C(N/N=C/c1cccs1)c1ccnc(Br)c1 |  | 59 | 6% | soluble |  | 35 |  | 
15 | O=C(N/N=C/c1cc(Br)cs1)c1cccs1 | inactive | 23 | 36% | soluble |  |  |  | 
16 | O=C(N/N=C/c1cccs1)c1ccnc(Cl)c1 |  | 30 | 30% | soluble |  |  |  | 29
17 | COc1cc(OC)c2c(-c3ccc(Br)cc3)c[nH]c2c1C(=O)N/N=C/c1ccc[nH]1 | inactive |  | 46% | soluble | inactive |  |  | 
18 | O=C(N/N=C/c1cccs1)c1cccs1 | inactive |  | 27% |  |  |  | 56 | 
19 | CO[C@H]1/C=C/O[C@@]2(C)Oc3c(C)c(O)c4c(O)c(c(/C=N/N5CCN(C)CC5)c(O)c4c3C2=O)NC(=O)/C(C)=C\C=C\[C@H](C)[C@H](O)[C@@H](C)[C@@H](O)[C@@H](C)[C@H](OC(C)=O)[C@@H]1C [RIFAMPIN] |  | 98 |  |  |  | 100 |  | 
20 | COc1cc(OC)c2c(-c3ccc(Cl)cc3)c[nH]c2c1C(=O)NNC(=O)c1ccncc1Br |  |  | 11% | soluble |  |  | 47 | 74

Row | SMILES | growth inhibition (GI) (Bacillus subtilis [1]) | inhibition of growth at 200 µM (Escherichia coli [2]) [%] | inhibition (BL21-DE3) | solubility [3] | growth inhibition (GI) (Escherichia coli [2]) | inhibition of growth at 200 µM (Bacillus subtilis [1]) [%] | inhibition of growth at 200 µM (Escherichia coli [4]) [%] | inhibition of growth at 200 µM (Bacillus subtilis [5]) [%]
21 | O=C(N/N=C/c1cc(Br)cs1)c1ccc[nH]1 |  |  | 27% | soluble |  |  | 51 | 73
22 | O=C(N/N=C/c1ccco1)c1ccnc(Cl)c1 | inactive | 3 | 32% | soluble |  |  |  | 
23 | COc1cnc(Cl)cc1C(=O)NNC(=O)c1c(OC)cc(OC)c2c(-c3ccc(Cl)cc3)c[nH]c12 |  | 26 | 28% | soluble |  |  |  | 37
24 | O=C(N/N=C/c1ccc[nH]1)c1ccncc1Br | inactive | 7 | 9% | soluble |  |  |  | 
25 | COc1cc(OC)c2c(-c3ccc(Br)cc3)c[nH]c2c1C(=O)NNC(=O)c1cccs1 | inactive |  | inactive | soluble | inactive |  |  | 
26 | COc1cc(OC)c2c(-c3ccc(Br)cc3)c[nH]c2c1C(=O)NNC(=O)c1ccnc(Cl)c1 | inactive | 15 | 17% | soluble |  |  |  | 
27 | COc1cc(OC)c2c(-c3ccc(Cl)cc3)c[nH]c2c1C(=O)NNC(=O)c1ccc[nH]1 | inactive |  | inactive | soluble | inactive |  |  | 
28 | COc1cc(OC)c2c(-c3ccc(Br)cc3)c[nH]c2c1C(=O)NNC(=O)c1ccnc(Br)c1 |  |  | 20% | soluble | inactive |  |  | 29
29 | COc1cc(OC)c2c(-c3ccc(Cl)cc3)c[nH]c2c1C(=O)N/N=C/c1ccco1 |  |  | 34% | soluble |  | 7 | 37 | 
30 | COc1cc(OC)c2c(-c3ccc(Cl)cc3)c[nH]c2c1C(=O)N/N=C/c1cccs1 | inactive |  | 38% | soluble | inactive |  |  | 
31 | O=C(N/N=C/c1ccco1)c1cccs1 |  |  | 18% | soluble |  | 4 | 50 | 
32 | O=C(N/N=C/c1ccc[nH]1)c1ccnc(Cl)c1 |  | 22 | 31% | soluble |  | 6 |  | 
33 | COc1cc(OC)c2c(-c3ccc(Br)cc3)c[nH]c2c1C(=O)N/N=C/c1cccs1 | inactive | 29 | inactive | soluble |  |  |  | 
34 | COc1cc(OC)c2c(-c3ccc(Br)cc3)c[nH]c2c1C(=O)NNC(=O)c1ccc[nH]1 | inactive |  | inactive | soluble | inactive |  |  | 
35 | O=C(N/N=C/c1ccco1)c1ccco1 | inactive | 18 | 3% | soluble |  |  |  | 
36 | O=C(N/N=C/c1ccc[nH]1)c1ccnc(Br)c1 | inactive | 53 | 8% | soluble |  |  |  | 
37 | O=C(N/N=C/c1ccc[nH]1)c1cccs1 |  | 22 | 34% | soluble |  | 33 |  | 
38 | COc1cc(OC)c2c(-c3ccc(Br)cc3)c[nH]c2c1C(=O)NNC(=O)c1ccncc1Br |  | 14 | 3% | soluble |  |  |  | 52
39 | COc1cc(OC)c2c(-c3ccc(Cl)cc3)c[nH]c2c1C(=O)NNC(=O)c1ccnc(Br)c1 |  |  | 24% | soluble | inactive |  |  | 25
